Experimental data from patent US20250161184A1, “NOVEL USE” (DSM IP Assets B.V., priority 2022, published 2025).
Entries after “also recorded” stand apart in the source; their conditions may differ.

System: Normal human dermal fibroblasts
Test: in vitro dermal fibroblast collagen assay (collagen 1 immunolabeling, flow cytometry)
Format: cell-based
Details: for Collagen 1 expression relative to untreated (%): 72 hours treatment, mean, n = 4, untreated = 100%; for effect on collagen type 1 (result in words): normal human dermal fibroblasts, 72 hours, several concentrations
Experimental: The neutral core human milk oligosaccharides LNT and LNnT were evaluated for their effect on collagen type 1. This was done using an in vitro dermal fibroblast collagen assay. […] For comparative reasons, also another human milk oligosaccharide was tested, i.e. 6′-silalyllactose (6′SL).
Normal human dermal fibroblasts were seeded in cell culture medium (Dulbecco's Modified Eagle Medium supplemented with 10% serum and 1% antibiotics) and allowed to adhere in a humidified cell incubator maintaining 37° C. and 5% CO2. Afterwards, the cells were starved with culture medium without serum for 16-24 hours to synchronize the cells their cell cycle. The starvation medium was removed and cell culture medium+LNT or LNnT respectively 6′SL at various concentrations was added to the cells. The cells were treated for 72 hours. The cells were then fixated and immunolabeled with antibodies specific for collagen 1. These labeled cells were analyzed using flow cytometry and compared to the untreated ones (medium without LNT respectively LNnT or 6′SL).

Structure (SMILES) | Collagen 1 expression relative to untreated (%) (0.10 μM) | Collagen 1 expression relative to untreated (%) (1.00 μM) | Collagen 1 expression relative to untreated (%) (50 μM) | effect on collagen type 1 (result in words) | Collagen 1 expression relative to untreated (%) (0.05 μM) | Collagen 1 expression relative to untreated (%) (100 μM) | Collagen 1 expression relative to untreated (%) (0.50 μM)
CC(=O)N[C@H]1[C@H]([C@H](O)[C@H](O)CO)O[C@@](OC[C@H]2O[C@@H](O[C@H]3[C@H](O)[C@@H](O)[C@H](O)O[C@@H]3CO)[C@H](O)[C@@H](O)[C@H]2O)(C(=O)O)C[C@@H]1O [6′SL, 6′-silalyllactose, reference compound] | 103% | 121% | 100% | much smaller effect | – | – | –
CC(=O)N[C@H]1[C@H](O[C@H]2[C@@H](O)[C@@H](CO)O[C@@H](O[C@H]3[C@H](O)[C@@H](O)C(O)O[C@@H]3CO)[C@@H]2O)O[C@H](CO)[C@@H](O[C@@H]2O[C@H](CO)[C@H](O)[C@H](O)[C@H]2O)[C@@H]1O (mixture of isomers) [LNnT, lacto-N-neotetraose] | 129% | 167% | 172% | most active in inducing collagen synthesis; also recorded: increase collagen expression | 117% | 177% | –
CC(=O)N[C@H]1[C@H](O[C@H]2[C@@H](O)[C@@H](CO)O[C@@H](O[C@H]3[C@H](O)[C@@H](O)C(O)O[C@@H]3CO)[C@@H]2O)O[C@H](CO)[C@@H](O)[C@@H]1O[C@@H]1O[C@H](CO)[C@H](O)[C@H](O)[C@H]1O (stereo partly drawn) [LNT, lacto-N-tetraose] | – | 159% | 164% | increase collagen expression | – | 163% | 139%
